Drawing on patent US8835472B2, “Compounds, pharmaceutical compositions and uses thereof” (Boehringer Ingelheim International GmbH, priority 2010, dated 2014), this text covers IC50 for 75 compounds.

This test deals with human ACC2 (Homo sapiens (Human), UniProt O00763). In words: ACC2 assay, spectrophotometric 384 well assay (NADH-linked, coupled lactate dehydrogenase/pyruvate kinase reaction). In kind it is biochemical. The settings on record: hACC2 construct lacking the 128 N-terminal amino acids; 25° C., 340 nm over 15 minutes. A digest of the protocol: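 Kinetic NADH-linked assay (pyruvate kinase/lactate dehydrogenase coupling) with baculovirus-expressed hACC2 missing its first 128 amino acids. Started with 500 μM ATP and 200 μM each NADH and acetyl-CoA; slope followed 15 min at 25 °C, pH 7.5. No-acetyl-CoA wells define 0%; IC50 by nonlinear regression.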
Sequence of human ACC2 (O00763 129-2458): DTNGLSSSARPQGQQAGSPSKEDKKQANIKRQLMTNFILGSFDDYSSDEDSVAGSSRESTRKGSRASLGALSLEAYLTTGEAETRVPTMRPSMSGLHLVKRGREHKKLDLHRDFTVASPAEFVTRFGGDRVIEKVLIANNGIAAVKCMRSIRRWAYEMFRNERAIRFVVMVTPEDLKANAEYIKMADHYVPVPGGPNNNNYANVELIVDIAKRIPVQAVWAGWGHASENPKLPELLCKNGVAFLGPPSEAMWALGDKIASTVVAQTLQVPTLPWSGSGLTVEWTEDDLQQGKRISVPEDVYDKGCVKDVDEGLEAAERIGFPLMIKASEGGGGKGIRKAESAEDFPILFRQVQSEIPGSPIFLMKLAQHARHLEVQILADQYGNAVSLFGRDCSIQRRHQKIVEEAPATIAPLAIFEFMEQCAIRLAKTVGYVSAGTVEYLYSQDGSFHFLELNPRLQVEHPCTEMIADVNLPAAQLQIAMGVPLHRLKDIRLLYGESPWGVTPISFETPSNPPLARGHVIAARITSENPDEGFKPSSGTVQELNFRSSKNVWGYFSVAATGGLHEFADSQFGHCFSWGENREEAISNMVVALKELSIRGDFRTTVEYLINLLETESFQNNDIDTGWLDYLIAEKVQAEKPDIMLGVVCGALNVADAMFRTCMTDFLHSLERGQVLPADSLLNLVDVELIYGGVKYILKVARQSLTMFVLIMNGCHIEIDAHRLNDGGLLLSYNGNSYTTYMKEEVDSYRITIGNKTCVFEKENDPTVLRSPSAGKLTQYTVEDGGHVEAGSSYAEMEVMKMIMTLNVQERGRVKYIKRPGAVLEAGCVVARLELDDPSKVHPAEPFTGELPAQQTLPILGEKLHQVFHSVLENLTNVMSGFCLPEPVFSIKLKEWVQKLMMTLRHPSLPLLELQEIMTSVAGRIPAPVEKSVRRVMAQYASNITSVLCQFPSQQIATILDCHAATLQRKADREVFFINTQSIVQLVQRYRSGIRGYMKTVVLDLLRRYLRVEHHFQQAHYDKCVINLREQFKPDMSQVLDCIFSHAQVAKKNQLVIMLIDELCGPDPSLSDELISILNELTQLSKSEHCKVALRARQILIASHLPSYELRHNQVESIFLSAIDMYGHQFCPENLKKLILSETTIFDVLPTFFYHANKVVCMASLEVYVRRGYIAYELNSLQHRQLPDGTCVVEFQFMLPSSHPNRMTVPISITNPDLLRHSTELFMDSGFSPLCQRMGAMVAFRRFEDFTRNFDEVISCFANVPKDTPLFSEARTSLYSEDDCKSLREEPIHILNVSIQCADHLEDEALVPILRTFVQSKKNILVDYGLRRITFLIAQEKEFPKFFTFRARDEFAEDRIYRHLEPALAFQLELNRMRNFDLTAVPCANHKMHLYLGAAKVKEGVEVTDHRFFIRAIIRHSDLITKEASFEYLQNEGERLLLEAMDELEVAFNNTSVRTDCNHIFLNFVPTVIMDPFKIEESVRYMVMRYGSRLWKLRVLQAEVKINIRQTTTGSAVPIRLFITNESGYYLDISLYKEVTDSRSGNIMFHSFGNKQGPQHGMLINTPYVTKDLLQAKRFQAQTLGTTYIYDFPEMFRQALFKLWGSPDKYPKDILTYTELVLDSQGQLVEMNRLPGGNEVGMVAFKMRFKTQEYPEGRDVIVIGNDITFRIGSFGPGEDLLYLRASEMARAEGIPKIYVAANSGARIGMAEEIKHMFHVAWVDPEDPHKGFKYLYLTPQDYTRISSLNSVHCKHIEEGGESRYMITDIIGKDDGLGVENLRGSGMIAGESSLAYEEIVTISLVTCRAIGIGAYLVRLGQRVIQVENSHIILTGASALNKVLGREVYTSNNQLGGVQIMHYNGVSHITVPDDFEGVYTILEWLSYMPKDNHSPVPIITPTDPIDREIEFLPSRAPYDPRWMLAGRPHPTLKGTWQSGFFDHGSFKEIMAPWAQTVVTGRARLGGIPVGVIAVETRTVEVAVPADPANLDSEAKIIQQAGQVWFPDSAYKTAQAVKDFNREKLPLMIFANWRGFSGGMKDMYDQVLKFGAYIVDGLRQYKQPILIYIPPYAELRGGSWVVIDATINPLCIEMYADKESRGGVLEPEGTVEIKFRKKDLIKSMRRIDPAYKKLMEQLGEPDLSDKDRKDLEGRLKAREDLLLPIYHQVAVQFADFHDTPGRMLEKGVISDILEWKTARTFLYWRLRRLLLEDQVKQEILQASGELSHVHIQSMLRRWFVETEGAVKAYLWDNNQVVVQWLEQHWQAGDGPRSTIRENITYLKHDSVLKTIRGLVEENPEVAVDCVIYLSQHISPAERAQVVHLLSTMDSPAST
One may read the IC50 as the concentration that inhibits the measured activity by half. A lower IC50 goes with greater potency. In the case of `CC(=O)NC(C)Cc1ccc(C#Cc2ccnc(N3CCCC3)n2)cc1` (stereo not drawn) [Example 11.43], the IC50 was 930 nM.

Compound `CC(=O)NC(C)Cc1ccc(C#Cc2ccnc(NCC(C)C)n2)cc1` (stereo not drawn) [Example 11.44] showed an IC50 of 1300 nM. The IC50 values of the last two compounds are within 1.5-fold of each other.

On to `CC(=O)NC(C)Cc1ccc(C#Cc2ccnc(N(C)Cc3ccccc3)n2)cc1` (stereo not drawn) [Example 11.45], for which inhibition was half-maximal at 530 nM (IC50).

As to `CCCN(C)c1nccc(C#Cc2ccc(CC(C)NC(C)=O)cc2)n1` (stereo not drawn) [Example 11.46], the IC50 was found to be 290 nM.

On to `CC(=O)NC(C)Cc1ccc(C#Cc2ccnc(N3CCN(S(C)(=O)=O)CC3)n2)cc1` (stereo not drawn) [Example 11.47], for which the IC50 came to 7400 nM. This IC50 lies about 26-fold higher than the previous one.

`COC(=O)CN(C)c1nccc(C#Cc2ccc(CC(C)NC(C)=O)cc2)n1` (stereo not drawn) [Example 11.48] came in with an IC50 of 10300 nM.

`CCN(CC)c1nccc(C#Cc2ccc(CC(C)NC(C)=O)cc2)n1` (stereo not drawn) [Example 11.49] registered an IC50 of 460 nM.

In turn, `CCOc1nccc(C#Cc2ccc(CC(C)NC(C)=O)cc2)n1` (stereo not drawn) [Example 12.1, N-(1-(4-((2-ethoxypyrimidin-4-yl)ethynyl)phenyl)propan-2-yl)acetamide] displayed an IC50 of 8500 nM.

Take `CC(=O)NC(C)Cc1ccc(C#Cc2ccnc(OC3CCCC3)n2)cc1` (stereo not drawn) [Example 12.2]: the IC50 was determined as 4300 nM. Against the preceding compound, the IC50 is about 2-fold lower.

Turning to `CC(=O)NC(C)Cc1ccc(C#Cc2ccnc(Oc3ccccc3)n2)cc1` (stereo not drawn) [Example 12.3], half-maximal inhibition (IC50) was put at 1300 nM.

In turn, `CC(=O)NC(C)Cc1ccc(C#Cc2ccnc(OCC(C)C)n2)cc1` (stereo not drawn) [Example 12.4] yielded an IC50 of 980 nM.

On to `CC(=O)NC(C)Cc1ccc(C#Cc2ccnc(OCC3CC3)n2)cc1` (stereo not drawn) [Example 12.5], for which half-maximal inhibition (IC50) was put at 1600 nM.

As to `CC(=O)NC(C)Cc1ccc(C#Cc2ccnc(OC3CCC3)n2)cc1` (stereo not drawn) [Example 12.6], half-maximal inhibition (IC50) was put at 1100 nM. The IC50 values of the last two compounds are within 1.5-fold of each other.

The compound `CCC(C)Oc1nccc(C#Cc2ccc(CC(C)NC(C)=O)cc2)n1` (stereo not drawn) [Example 12.7] gave an IC50 of 3600 nM.

`CCCOc1nccc(C#Cc2ccc(CC(C)NC(C)=O)cc2)n1` (stereo not drawn) [Example 12.8] returned an IC50 of 2200 nM.

`COCCOc1ncc(C#Cc2ccc(CC(C)NC(C)=O)cc2)cn1` (stereo not drawn) [Example 12.9] came in with an IC50 of 2100 nM. This IC50 and that of the compound before are within 1.5-fold of each other.

Compound `CC(=O)NC(C)Cc1ccc(C#Cc2cnc(OC3CCOC3)nc2)cc1` (stereo not drawn) [Example 12.10] gave an IC50 of 630 nM. This IC50 lies about 3.3-fold lower than the previous one.

For the compound `CC(=O)NC(C)Cc1ccc(C#Cc2cnc(OCC(C)C)nc2)cc1` (stereo not drawn) [Example 12.11], the IC50 stood at 670 nM.

`CC(=O)NC(C)Cc1ccc(C#Cc2cnc(OC3CCC3)nc2)cc1` (stereo not drawn) [Example 12.12] registered an IC50 of 90 nM.

`CC(=O)NC(C)Cc1ccc(C#Cc2cnc(OCC3(C)CC3)nc2)cc1` (stereo not drawn) [Example 12.13]: inhibition was half-maximal at 430 nM (IC50).

For `CC(=O)NC(C)Cc1ccc(C#Cc2cnc(OCc3cc(C)on3)nc2)cc1` (stereo not drawn) [Example 12.14], it took 2500 nM to reach half-maximal inhibition (IC50).

As for `CCCOc1ncc(C#Cc2ccc(CC(C)NC(C)=O)cc2)cn1` (stereo not drawn) [Example 12.15], the IC50 came to 230 nM.

Consider `CC(=O)NC(C)Cc1ccc(C#Cc2cnc(Oc3ccccc3)nc2)cc1` (stereo not drawn) [Example 12.16], for which the IC50 is 170 nM.

Regarding `CCOc1ncc(C#Cc2ccc(CC(C)NC(C)=O)cc2)cn1` (stereo not drawn) [Example 12.17], the IC50 was 380 nM.

`CC(=O)NC(C)Cc1ccc(C#Cc2ccnc(OC(C)C)n2)cc1` (stereo not drawn) [Example 12.18] displayed an IC50 of 7100 nM.

In turn, `CC(=O)NC(C)Cc1ccc(C#Cc2cnc(OCCC(C)C)nc2)cc1` (stereo not drawn) [Example 12.19] had an IC50 of 1200 nM.

As for `CC(=O)NC(C)Cc1ccc(C#Cc2cnc(OCc3ccccc3)nc2)cc1` (stereo not drawn) [Example 12.20], the IC50 came out at 530 nM.

Compound `CC(=O)NC(C)Cc1ccc(C#Cc2cnc(OC(C)C)nc2)cc1` (stereo not drawn) [Example 12.21] registered an IC50 of 380 nM.

Take `CC(Cc1ccc(C#Cc2cnc(OC3CCC3)nc2)cc1)NC(=O)C1CC1` (stereo not drawn) [Example 12.22]: it took 640 nM to reach half-maximal inhibition (IC50).

`CCCOc1ncc(C#Cc2ccc(CC(C)NC(=O)C3CC3)cc2)cn1` (stereo not drawn) [Example 12.23] showed an IC50 of 1100 nM.

The compound `CC(Cc1ccc(C#Cc2cnc(Oc3ccccc3)nc2)cc1)NC(=O)C1CC1` (stereo not drawn) [Example 12.24] came in with an IC50 of 590 nM. This IC50 lies about 1.9-fold lower than the previous one.

Compound `CC(Cc1ccc(C#Cc2cnc(OC(C)C)nc2)cc1)NC(=O)C1CC1` (stereo not drawn) [Example 12.25] gave an IC50 of 2400 nM.

`CCCOc1ncc(C#Cc2ccc(CC(C)NC(=O)OC)cc2)cn1` (stereo not drawn) [Example 12.26]: inhibition was half-maximal at 1000 nM (IC50).

Take `COC(=O)NC(C)Cc1ccc(C#Cc2cnc(Oc3ccccc3)nc2)cc1` (stereo not drawn) [Example 12.27]: the IC50 was determined as 860 nM.

As for `COC(=O)NC(C)Cc1ccc(C#Cc2cnc(OC(C)C)nc2)cc1` (stereo not drawn) [Example 12.28], the IC50 came to 1100 nM.

`CC(Cc1ccc(C#Cc2cnc(OC3CCC3)nc2)cc1)NC(=O)N(C)C` (stereo not drawn) [Example 12.29]: the IC50 is 70 nM.

`CCCOc1ncc(C#Cc2ccc(CC(C)NC(=O)N(C)C)cc2)cn1` (stereo not drawn) [Example 12.30] yielded an IC50 of 190 nM.

Consider `CC(=O)NC(C)Cc1ccc(C#Cc2cnc(OCCF)nc2)cc1` (stereo not drawn) [Example 12.31], for which half-maximal inhibition (IC50) required 1100 nM.

The compound `CC(=O)NC(C)Cc1ccc(C#Cc2cnc(OCCc3ccccc3)nc2)cc1` (stereo not drawn) [Example 12.32] came in with an IC50 of 320 nM.

Compound `CC(=O)NC(C)Cc1ccc(C#Cc2cnc(OCCC3CC3)nc2)cc1` (stereo not drawn) [Example 12.33] returned an IC50 of 320 nM.

On to `CCCCOc1ncc(C#Cc2ccc(CC(C)NC(C)=O)cc2)cn1` (stereo not drawn) [Example 12.34], for which the IC50 is 280 nM.

Compound `CC(=O)NC(C)Cc1ccc(C#Cc2cnc(OC(C)c3ccncc3)nc2)cc1` (stereo not drawn) [Example 12.35] yielded an IC50 of 2300 nM.

As to `CC(=O)NC(C)Cc1ccc(C#Cc2cnc(OCc3cncs3)nc2)cc1` (stereo not drawn) [Example 12.36], the IC50 is 1500 nM.

In the case of `CCC(COC)Oc1ncc(C#Cc2ccc(CC(C)NC(C)=O)cc2)cn1` (stereo not drawn) [Example 12.37], the IC50 is 1100 nM.

`CC(=O)NC(C)Cc1ccc(C#Cc2cnc(OC(C)C(F)(F)F)nc2)cc1` (stereo not drawn) [Example 12.38] had an IC50 of 260 nM.

`CC(=O)NC(C)Cc1ccc(C#Cc2cnc(Oc3ccc4cn[nH]c4c3)nc2)cc1` (stereo not drawn) [Example 12.39] returned an IC50 of 3200 nM. This IC50 is about 12-fold higher than that of the compound before.

For `COc1ccc(Oc2ncc(C#Cc3ccc(CC(C)NC(C)=O)cc3)cn2)cn1` (stereo not drawn) [Example 12.40], the IC50 was determined as 630 nM.

`CC(=O)NC(C)Cc1ccc(C#Cc2cnc(OC(C)CF)nc2)cc1` (stereo not drawn) [Example 12.41] registered an IC50 of 520 nM.

`CC(=O)NC(C)Cc1ccc(C#Cc2cnc(OC(C)CC(F)(F)F)nc2)cc1` (stereo not drawn) [Example 12.42] returned an IC50 of 350 nM. This IC50 and that of the compound before are within 1.5-fold of each other.

As to `CC(=O)NC(C)Cc1ccc(C#Cc2cnc(OCC(C)(F)F)nc2)cc1` (stereo not drawn) [Example 12.43], half-maximal inhibition (IC50) was put at 2600 nM.

`CC(=O)NC(C)Cc1ccc(C#Cc2cnc(OC(CF)CF)nc2)cc1` (stereo not drawn) [Example 12.44] displayed an IC50 of 1000 nM.

As to `CC(=O)NC(C)Cc1ccc(C#Cc2cnc(OCC3CC3(F)F)nc2)cc1` (stereo not drawn) [Example 12.45], half-maximal inhibition (IC50) required 180 nM.

The compound `COc1ccccc1Oc1ncc(C#Cc2ccc(CC(C)NC(C)=O)cc2)cn1` (stereo not drawn) [Example 12.46] gave an IC50 of 1000 nM.

Compound `CC(=O)NC(C)Cc1ccc(C#Cc2cnc(Oc3cccc(F)c3)nc2)cc1` (stereo not drawn) [Example 12.47] gave a concentration for half-maximal inhibition (IC50) of 130 nM. This IC50 is about 7.7-fold lower than that of the compound before.

Turning to `CC(=O)NC(C)Cc1ccc(C#Cc2cnc(Oc3ccc(F)cc3)nc2)cc1` (stereo not drawn) [Example 12.49], the IC50 was determined as 230 nM.

In the case of `COc1ccc(Oc2ncc(C#Cc3ccc(CC(C)NC(C)=O)cc3)cn2)cc1` (stereo not drawn) [Example 12.50], the IC50 was 530 nM. This IC50 lies about 2.3-fold higher than the previous one.

Consider `CC(=O)NC(C)Cc1ccc(C#Cc2cnc(Oc3cccnc3)nc2)cc1` (stereo not drawn) [Example 12.51], for which the IC50 was determined as 1500 nM.

In turn, `CC(=O)NC(C)Cc1ccc(C#Cc2cnc(OC3Cc4ccccc4C3)nc2)cc1` (stereo not drawn) [Example 12.52] came in with an IC50 of 430 nM.

In the case of `CC(=O)NC(C)Cc1ccc(C#Cc2cnc(OCc3ccccc3F)nc2)cc1` (stereo not drawn) [Example 12.53], the IC50 was 9000 nM.

`CC(=O)NC(C)Cc1ccc(C#Cc2cnc(OCc3cccc(F)c3)nc2)cc1` (stereo not drawn) [Example 12.54] gave an IC50 of 230 nM.

`CC(=O)NC(C)Cc1ccc(C#Cc2cnc(OCc3ccc(F)cc3)nc2)cc1` (stereo not drawn) [Example 12.55] returned an IC50 of 170 nM.

The compound `CC(=O)NC(C)Cc1ccc(C#Cc2cnc(OCc3cccnc3)nc2)cc1` (stereo not drawn) [Example 12.56] had an IC50 of 4900 nM.

On to `CC(=O)NC(C)Cc1ccc(C#Cc2cnc(OCc3ccccn3)nc2)cc1` (stereo not drawn) [Example 12.57], for which the IC50 was 1800 nM.

In turn, `C[C@H](NC(=O)C1CC1)c1ccc(C#Cc2cnc(OCC3CC3)nc2)cc1` [Example 12.58] came in with an IC50 of 4500 nM.

For `CC(=O)N[C@@H](C)c1ccc(C#Cc2cnc(OCC3CC3)nc2)cc1` [Example 12.59], half-maximal inhibition (IC50) was put at 1600 nM.

Compound `CC(=O)N[C@@H](C)c1ccc(C#Cc2cnc(OCc3ccccc3)nc2)cc1` [Example 12.60] registered an IC50 of 540 nM.

Regarding `CC(=O)N[C@@H](C)c1ccc(C#Cc2cnc(OCc3ccoc3)nc2)cc1` [Example 12.61], inhibition was half-maximal at 790 nM (IC50).

Take `CC(=O)N[C@@H](C)c1ccc(C#Cc2cnc(OC3CCC3)nc2)cc1` [Example 12.62]: half-maximal inhibition (IC50) was put at 240 nM.

For `C[C@H](NC(=O)C1CC1)c1ccc(C#Cc2cnc(OCCC(F)(F)F)nc2)cc1` [Example 12.63], the IC50 turned out to be 1100 nM.

As to `CC(=O)N[C@@H](C)c1ccc(C#Cc2cnc(OCCC(F)(F)F)nc2)cc1` [Example 12.64], the IC50 amounted to 550 nM.

With `C[C@H](NC(=O)C1CC1)c1ccc(C#Cc2cnc(OC3CCC3)nc2)cc1` [Example 12.65], the IC50 worked out at 450 nM.

`CCOc1ncc(C#Cc2ccc([C@H](C)NC(=O)C3CC3)cc2)cn1` [Example 12.66] yielded an IC50 of 2100 nM.

Consider `C[C@H](NC(=O)C1CC1)c1ccc(C#Cc2cnc(Oc3ccccc3)nc2)cc1` [Example 12.67], for which the IC50 came out at 3900 nM. Compared with the last compound, the IC50 is about 1.9-fold higher.

The compound `CC(=O)N[C@@H](C)c1ccc(C#Cc2cnc(Oc3ccccc3)nc2)cc1` [Example 12.68] came in with an IC50 of 980 nM.

With `CCOc1ncc(C#Cc2ccc([C@H](C)NC(C)=O)cc2)cn1` [Example 12.69], the IC50 came to 2600 nM.
